Ten compounds from ChEMBL document CHEMBL1201862, “PubChem BioAssay data set” (2004) can be followed below.

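Following 48 hours of exposure in 96-well plates, responses at five concentrations were used to interpolate endpoints linearly. GI50 marks 50% less growth.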 The source made the active and inactive calls. Cut-off read from the data, not from the text of the source: active = GI50 up to about 1.1 µM and inactive = higher.

Among the test systems are K562; OVCAR-5; EKVX; CCRF-CEM; SK-MEL-2; MOLT-4; UACC-257; RXF 393; Malme-3M; HCT-15; NCI/ADR-RES; MDA-MB-231; CAKI-1; HT-29; HCC 2998; SNB-19; M14; LOX IMVI; IGROV-1; NCI-H23.
What all share (assay): NCI tumour cell line growth inhibition, 48 h

For `Cc1ccc(S(=O)(=O)N/N=C2/CCCOC2)cc1`, the GI50 with K562, in the assay on OVCAR-5, in the assay with EKVX, with CCRF-CEM, in the assay on SK-MEL-2 and in the assay with MOLT-4 was > 100 µM (inactive) each time. The GI50 was > 100 µM (inactive) in the assay on UACC-257; > 100 µM (inactive) in the assay on RXF 393; > 100 µM (inactive) in the assay on Malme-3M; over 100 µM in the assay on HCT-15; > 100 µM (inactive) in the assay with NCI/ADR-RES; > 100 µM (inactive) with MDA-MB-231. Besides, the GI50 in the assay on CAKI-1, with HT-29, with HCC 2998, in the assay with SNB-19, with M14 and in the assay with LOX IMVI was > 100 µM (inactive) in each case. Moreover, the GI50 in the assay with IGROV-1 and in the assay with NCI-H23 was > 100 µM (inactive) in each case.
With `O=C1/C(=C\c2cccc(Oc3ccccc3)c2)SC(c2ccccc2)N1Cc1ccccc1` (stereo not drawn), the GI50 in the assay on K562 is 29.9 µM (inactive); with OVCAR-5 it was 57.3 µM (inactive); in the assay with EKVX, 28 µM (inactive); in the assay with CCRF-CEM it was 17.1 µM (inactive); in the assay with SK-MEL-2, 18.2 µM (inactive); with MOLT-4 it was 30.1 µM (inactive). Further, the GI50 is 26.6 µM (inactive) in the assay on UACC-257; 20.1 µM (inactive) in the assay with RXF 393; 22.2 µM (inactive) with Malme-3M; 32.8 µM in the assay with HCT-15; 20.4 µM (inactive) in the assay on NCI/ADR-RES; 32.9 µM (inactive) in the assay on MDA-MB-231. In addition, the GI50 was 49.7 µM (inactive) in the assay on CAKI-1; 20.2 µM (inactive) with HT-29; 30.3 µM (inactive) in the assay on HCC 2998; 24.7 µM (inactive) with SNB-19; 22.4 µM (inactive) with M14; 15.5 µM (inactive) with LOX IMVI. For the same compound, in the assay with NCI-H23, the GI50 is 22.7 µM (inactive).
For `CC[C@@]1(O)C(=O)OCc2c1cc1n(c2=O)Cc2cc3c(N)cccc3nc2-1` [9-AMINOCAMPTOTHECIN], the GI50 in the assay with K562 was 0.112 µM (active); in the assay with OVCAR-5, 0.128 µM (active); with EKVX it was 0.34 µM (active); in the assay with CCRF-CEM, < 0.0369 µM (active); in the assay with SK-MEL-2 it was 0.233 µM (active); in the assay with MOLT-4 it was < 0.01 µM (active). Further, the GI50 in the assay with UACC-257 is 0.0571 µM (active); with RXF 393 it was 0.0408 µM (active); in the assay on Malme-3M, 0.0785 µM (active); in the assay with HCT-15, 0.197 µM; in the assay with NCI/ADR-RES it was 0.0128 µM (active); in the assay with MDA-MB-231 it was 0.272 µM (active). Further, the GI50 with CAKI-1 is < 0.01 µM (active); in the assay on HT-29 it was 0.0632 µM (active); in the assay with HCC 2998, 0.111 µM (active); with SNB-19, < 0.01 µM (active); in the assay on M14, 0.0113 µM (active); in the assay on LOX IMVI, < 0.01 µM (active). For the same compound, the GI50 in the assay on IGROV-1 is 0.246 µM (active); with NCI-H23 it was < 0.01 µM (active).
Take `COc1cccc(C2c3cc4c(cc3OC(C)(N3CCCC3)C2C)OCO4)c1OC` (stereo not drawn): the GI50 is 6.15 µM (inactive) in the assay with K562; 16 µM (inactive) in the assay with OVCAR-5; 14.9 µM (inactive) in the assay with EKVX; 4.85 µM (inactive) in the assay on CCRF-CEM; 7.74 µM (inactive) in the assay with SK-MEL-2; 5.11 µM (inactive) with MOLT-4. The GI50 with UACC-257 is 16 µM (inactive); with RXF 393 it was 14.8 µM (inactive); in the assay with Malme-3M it was 18.8 µM (inactive); in the assay with HCT-15, 4.83 µM; in the assay with NCI/ADR-RES, 7.46 µM (inactive); with MDA-MB-231 it was 19.5 µM (inactive). The GI50 with CAKI-1 is 5.06 µM (inactive); in the assay on HT-29 it was 5.14 µM (inactive); with HCC 2998, 19.1 µM (inactive); in the assay with SNB-19 it was 22.8 µM (inactive); with M14, 14.6 µM (inactive); with LOX IMVI, 11.7 µM (inactive). Also, the GI50 is 5.82 µM (inactive) in the assay with IGROV-1 and 15 µM (inactive) in the assay with NCI-H23.
As to `OCC(Cn1cncn1)(c1ccc(F)cc1F)n1cncn1` (stereo not drawn), the GI50 in the assay with K562, in the assay on OVCAR-5, with CCRF-CEM, with SK-MEL-2, in the assay on MOLT-4 and with UACC-257 was > 100 µM (inactive) in each case. Moreover, the GI50 with RXF 393 was > 100 µM (inactive); in the assay on Malme-3M it was > 100 µM (inactive); in the assay on HCT-15, over 100 µM; in the assay on NCI/ADR-RES it was > 100 µM (inactive); with MDA-MB-231 it was > 100 µM (inactive); in the assay on CAKI-1, > 100 µM (inactive). Further, the GI50 with HT-29, with HCC 2998, with SNB-19, in the assay on M14, with LOX IMVI and in the assay with IGROV-1 was > 100 µM (inactive) throughout. Also, the GI50 in the assay on NCI-H23 is > 100 µM (inactive).
On to `COc1ccc(NC(C)c2ccncc2)cc1` (stereo not drawn), for which the GI50 in the assay on K562, in the assay with OVCAR-5, in the assay on EKVX, with CCRF-CEM, in the assay on SK-MEL-2 and in the assay with MOLT-4 was > 100 µM (inactive) each time. Also, the GI50 in the assay with UACC-257 is > 10 µM (inactive); with RXF 393 it was > 100 µM (inactive); in the assay on Malme-3M, > 100 µM (inactive); in the assay on HCT-15, over 100 µM; with NCI/ADR-RES, > 100 µM (inactive); in the assay on MDA-MB-231 it was > 100 µM (inactive). For the same compound, the GI50 in the assay on CAKI-1, with HT-29, in the assay on HCC 2998, with SNB-19, in the assay with M14 and with LOX IMVI was > 100 µM (inactive) each time. For the same compound, the GI50 in the assay on NCI-H23 is > 100 µM (inactive).
Take `CCCc1[nH]nc(C(N)=O)c1/N=N/N(C)C`: the GI50 was 2.56 µM (inactive) in the assay with K562; 26.3 µM (inactive) with EKVX; 27 µM (inactive) in the assay on CCRF-CEM; > 100 µM (inactive) with SK-MEL-2; 15 µM (inactive) in the assay on MOLT-4; > 100 µM (inactive) in the assay with UACC-257. Moreover, the GI50 in the assay with RXF 393 is 41.5 µM (inactive); in the assay on Malme-3M it was 98.2 µM (inactive); with HCT-15 it was 50.4 µM; in the assay with NCI/ADR-RES, 91 µM (inactive); with MDA-MB-231 it was > 100 µM (inactive); with CAKI-1 it was 28.4 µM (inactive). Also, the GI50 is 86.3 µM (inactive) in the assay with HT-29; > 100 µM (inactive) in the assay with HCC 2998; > 100 µM (inactive) in the assay with SNB-19; > 100 µM (inactive) in the assay with M14; 47 µM (inactive) with LOX IMVI; 28.5 µM (inactive) in the assay with IGROV-1. In the assay on NCI-H23, the GI50 is 75.3 µM (inactive).
For the compound `NC1NCCC(=O)N1CCc1c[nH]c2ccccc12` (stereo not drawn), the GI50 with K562 is 22.4 µM (inactive); in the assay with OVCAR-5, 23.6 µM (inactive); in the assay with EKVX, 28.1 µM (inactive); with CCRF-CEM, 23.6 µM (inactive); with SK-MEL-2 it was 19.9 µM (inactive); in the assay with UACC-257, 17.8 µM (inactive). Further, the GI50 with RXF 393 is 22.8 µM (inactive); in the assay on Malme-3M, 19.9 µM (inactive); in the assay with HCT-15, 19.5 µM; in the assay with NCI/ADR-RES, 24.5 µM (inactive); in the assay on MDA-MB-231, 13.2 µM (inactive); in the assay on CAKI-1, 29.2 µM (inactive). For the same compound, the GI50 was 27.2 µM (inactive) in the assay with HT-29; 18.5 µM (inactive) in the assay with HCC 2998; 33.7 µM (inactive) in the assay on SNB-19; 19.2 µM (inactive) with M14; 12.9 µM (inactive) in the assay with LOX IMVI; 25.4 µM (inactive) in the assay with IGROV-1. In addition, the GI50 with NCI-H23 is 18.7 µM (inactive).
`CC(=O)OC1C[C@@H](C)C2(CC(c3ccoc3)OC2=O)C2CCC(O)C3(CO3)C12CO` (stereo partly drawn): the GI50 with K562, with OVCAR-5, in the assay with CCRF-CEM, with SK-MEL-2, in the assay on MOLT-4 and with UACC-257 was > 100 µM (inactive) in each case. The GI50 is > 100 µM (inactive) with RXF 393; > 100 µM (inactive) in the assay with Malme-3M; over 100 µM in the assay on HCT-15; > 100 µM (inactive) with NCI/ADR-RES; > 100 µM (inactive) with MDA-MB-231; > 100 µM (inactive) in the assay with CAKI-1. For the same compound, the GI50 in the assay on HT-29, in the assay with HCC 2998, with SNB-19, in the assay with M14, in the assay on LOX IMVI and with IGROV-1 was > 100 µM (inactive) throughout. In addition, the GI50 in the assay on NCI-H23 was > 100 µM (inactive).
On to `CC(=O)Nc1cccc(N2C(=O)/C(=C\c3cccc(Oc4ccccc4)c3)SC2c2ccccc2)c1` (stereo not drawn), for which the GI50 in the assay on K562 is 25.6 µM (inactive); in the assay with OVCAR-5, > 100 µM (inactive); with EKVX, > 100 µM (inactive); with CCRF-CEM it was 14.9 µM (inactive); in the assay on SK-MEL-2, > 100 µM (inactive); in the assay on MOLT-4, 26.5 µM (inactive). The GI50 is > 100 µM (inactive) in the assay with UACC-257; 27.7 µM (inactive) with RXF 393; > 100 µM (inactive) with Malme-3M; over 100 µM with HCT-15; 60.8 µM (inactive) in the assay on NCI/ADR-RES; > 100 µM (inactive) in the assay on MDA-MB-231. For the same compound, the GI50 in the assay with CAKI-1 is > 100 µM (inactive); in the assay on HT-29, 80.7 µM (inactive); in the assay on HCC 2998, > 100 µM (inactive); in the assay with SNB-19, > 100 µM (inactive); with M14, > 100 µM (inactive); with LOX IMVI, 37.8 µM (inactive). Also, in the assay with NCI-H23, the GI50 was 83.2 µM (inactive).
